According to ChEMBL document CHEMBL1148604 (J Med Chem, 2006):
In brackets after ≈: the same amount, converted by molar mass. Activity calls are given as the source filed them. The calls are words filed in the database; no cut-off is given here.

The compounds below were run against T1, 3-oxoacyl-[acyl-carrier-protein] synthase 1 (Mycobacterium tuberculosis) (UniProt P9WQD9) (assay: Inhibitory activity against KasA from Mycobacterium tuberculosis H37Rv at 100 uM).
T1 sequence (whole entry): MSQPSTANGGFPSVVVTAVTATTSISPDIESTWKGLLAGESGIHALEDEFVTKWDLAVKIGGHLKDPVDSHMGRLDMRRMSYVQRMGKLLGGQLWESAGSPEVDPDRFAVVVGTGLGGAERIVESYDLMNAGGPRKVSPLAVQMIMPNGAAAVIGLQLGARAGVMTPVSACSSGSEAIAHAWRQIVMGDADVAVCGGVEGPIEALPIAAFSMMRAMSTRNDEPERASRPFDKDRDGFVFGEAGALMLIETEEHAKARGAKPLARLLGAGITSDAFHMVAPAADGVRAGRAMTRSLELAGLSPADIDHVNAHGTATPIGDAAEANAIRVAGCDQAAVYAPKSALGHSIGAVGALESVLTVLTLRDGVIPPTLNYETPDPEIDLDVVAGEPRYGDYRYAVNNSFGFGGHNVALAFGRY

| Structure (SMILES) | inhibition |
| --- | --- |
| C=CCC1(C)SC(=O)C(C)=C1O (stereo unspecified) | inactive |
| CCCCCCCCCCCCC1(C)SC(O)=C(C)C1=O (stereo unspecified) | inactive |
| CC1=C(O)C(C)(C/C=C/c2ccccc2)SC1=O (stereo unspecified) | inactive |
| CC(C)=CCC/C(C)=C/CC1(C)SC(O)=C(C)C1=O (stereo unspecified) | inactive |
| CCCCCCCCCCC1(C)SC(O)=C(C)C1=O (stereo unspecified) | inactive |
| CCCCCCCCCCCCCCC1(C)SC(O)=C(C)C1=O (stereo unspecified) | inactive |
| CCCCCCCCCCCCCC1(C)SC(O)=C(C)C1=O (stereo unspecified) | inactive |

What follows are compounds tested against T2, 3-oxoacyl-[acyl-carrier-protein] synthase 1 (Escherichia coli K-12) (UniProt P0A953) (assay: Inhibitory activity against FabB from Escherichia coli ANSI at 100 uM).
T2 sequence (whole entry): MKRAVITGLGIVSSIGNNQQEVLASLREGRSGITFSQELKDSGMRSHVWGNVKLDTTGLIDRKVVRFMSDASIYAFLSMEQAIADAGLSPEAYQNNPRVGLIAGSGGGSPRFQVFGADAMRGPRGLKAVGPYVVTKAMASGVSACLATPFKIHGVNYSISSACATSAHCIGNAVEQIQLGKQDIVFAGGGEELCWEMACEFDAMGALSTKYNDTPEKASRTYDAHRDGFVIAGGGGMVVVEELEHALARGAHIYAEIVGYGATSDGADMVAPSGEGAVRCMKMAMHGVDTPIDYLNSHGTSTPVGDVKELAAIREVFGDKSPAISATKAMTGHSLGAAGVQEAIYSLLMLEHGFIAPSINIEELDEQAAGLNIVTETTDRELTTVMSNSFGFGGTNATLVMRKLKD

| Structure (SMILES) | inhibition |
| --- | --- |
| C=CCC1(C)SC(=O)C(C)=C1O (stereo unspecified) | inactive |
| CCCCCCCCCCCCC1(C)SC(O)=C(C)C1=O (stereo unspecified) | inactive |
| CC1=C(O)C(C)(C/C=C/c2ccccc2)SC1=O (stereo unspecified) | inactive |
| CC(C)=CCC/C(C)=C/CC1(C)SC(O)=C(C)C1=O (stereo unspecified) | inactive |
| CCCCCCCCCCC1(C)SC(O)=C(C)C1=O (stereo unspecified) | inactive |
| CCCCCCCCCCCCCCC1(C)SC(O)=C(C)C1=O (stereo unspecified) | < 30% |
| CCCCCCCCCCCCCC1(C)SC(O)=C(C)C1=O (stereo unspecified) | < 30% |

Each compound was assayed against T3, 3-oxoacyl-[acyl-carrier-protein] synthase 2 (Mycobacterium tuberculosis, UniProt P9WQD7) (assay: Inhibitory activity against KasB from Mycobacterium tuberculosis H37Rv).
T3 sequence (P9WQD7 whole entry): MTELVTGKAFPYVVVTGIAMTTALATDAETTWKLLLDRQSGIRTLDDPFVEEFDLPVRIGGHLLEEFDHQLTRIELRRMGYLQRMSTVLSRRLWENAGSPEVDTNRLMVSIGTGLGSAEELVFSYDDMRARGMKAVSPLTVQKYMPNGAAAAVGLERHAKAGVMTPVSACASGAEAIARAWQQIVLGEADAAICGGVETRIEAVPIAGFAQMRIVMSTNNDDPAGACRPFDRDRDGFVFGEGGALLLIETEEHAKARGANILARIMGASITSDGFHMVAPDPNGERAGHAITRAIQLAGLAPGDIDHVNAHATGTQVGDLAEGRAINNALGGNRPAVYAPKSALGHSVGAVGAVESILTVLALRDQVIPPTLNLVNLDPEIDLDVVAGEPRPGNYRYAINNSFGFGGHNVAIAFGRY

| Structure (SMILES) | IC50 [µM] |
| --- | --- |
| CC1=C(O)C(C)(Cc2cccc(C(F)(F)F)c2)SC1=O (stereo unspecified) | > 1000 |
| COc1ccc(CC2(C)SC(O)=C(C)C2=O)cc1 (stereo unspecified) | > 1000 |

These compounds were tested against T4, 3-oxoacyl-[acyl-carrier-protein] synthase 1 (Escherichia coli K-12, UniProt P0A953) (assay: Inhibitory activity against FabB from Escherichia coli ANSI).
T4 sequence (P0A953 whole entry): T2 sequence (whole entry)

| Structure (SMILES) | IC50 [µM] |
| --- | --- |
| CC1=C(O)C(C)(Cc2cccc(C(F)(F)F)c2)SC1=O (stereo unspecified) | > 1000 |
| COc1ccc(CC2(C)SC(O)=C(C)C2=O)cc1 (stereo unspecified) | > 1000 |
| CCCCCCCCCCCCCCC1(C)SC(O)=C(C)C1=O (stereo unspecified) | > 100 |
| CCCCCCCCCCCCCC1(C)SC(O)=C(C)C1=O (stereo unspecified) | > 100 |

What follows are compounds tested against T5, 3-oxoacyl-[acyl-carrier-protein] synthase 3 (Escherichia coli) (UniProt C3TDZ2) (assay: Inhibitory activity against FabH from Escherichia coli ANSI at 100 uM).
T5 sequence (whole entry): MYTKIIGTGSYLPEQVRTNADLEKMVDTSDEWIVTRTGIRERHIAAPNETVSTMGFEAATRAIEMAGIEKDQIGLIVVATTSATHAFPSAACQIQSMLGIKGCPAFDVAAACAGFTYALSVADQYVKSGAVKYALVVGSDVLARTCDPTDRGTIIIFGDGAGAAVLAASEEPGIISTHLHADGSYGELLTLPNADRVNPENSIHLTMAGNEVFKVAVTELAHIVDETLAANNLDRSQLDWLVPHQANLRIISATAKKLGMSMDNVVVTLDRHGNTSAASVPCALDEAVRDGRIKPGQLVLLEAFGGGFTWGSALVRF

| Structure (SMILES) | inhibition |
| --- | --- |
| C=CCC1(C)SC(=O)C(C)=C1O (stereo unspecified) | inactive |
| CC1=C(O)C(C)(C/C=C/c2ccccc2)SC1=O (stereo unspecified) | inactive |

Each compound was assayed against T6, 3-oxoacyl-[acyl-carrier-protein] synthase 2 (Mycobacterium tuberculosis) (UniProt P9WQD7) (assay: Inhibitory activity against KasB from Mycobacterium tuberculosis H37Rv at 100 uM).
T6 sequence (whole entry): T3 sequence (P9WQD7 whole entry)

| Structure (SMILES) | inhibition |
| --- | --- |
| C=CCC1(C)SC(=O)C(C)=C1O (stereo unspecified) | inactive |
| CCCCCCCCCCCCC1(C)SC(O)=C(C)C1=O (stereo unspecified) | inactive |
| CC1=C(O)C(C)(C/C=C/c2ccccc2)SC1=O (stereo unspecified) | inactive |
| CC(C)=CCC/C(C)=C/CC1(C)SC(O)=C(C)C1=O (stereo unspecified) | inactive |
| CCCCCCCCCCC1(C)SC(O)=C(C)C1=O (stereo unspecified) | inactive |
| CCCCCCCCCCCCCCC1(C)SC(O)=C(C)C1=O (stereo unspecified) | inactive |
| CCCCCCCCCCCCCC1(C)SC(O)=C(C)C1=O (stereo unspecified) | inactive |

The compounds below were run on Mycobacterium tuberculosis (assay: Inhibitory activity against Mycobacterium tuberculosis H37Rv).
Type: functional

| Structure (SMILES) | MIC [µM] |
| --- | --- |
| C=CCC1(C)SC(=O)C(C)=C1O (stereo unspecified) | > 1000 |
| CCCCCCCCCCCCC1(C)SC(O)=C(C)C1=O (stereo unspecified) | 1000 (≈ 313 µg/mL) |
| CC1=C(O)C(C)(C/C=C/c2ccccc2)SC1=O (stereo unspecified) | > 1000 |
| CC(C)=CCC/C(C)=C/CC1(C)SC(O)=C(C)C1=O (stereo unspecified) | > 1000 |
| CCCCCCCCCCC1(C)SC(O)=C(C)C1=O (stereo unspecified) | 500 (≈ 142 µg/mL) |
| CC1=C(O)C(C)(Cc2cccc(C(F)(F)F)c2)SC1=O (stereo unspecified) | 1000 (≈ 302 µg/mL) |
| COc1ccc(CC2(C)SC(O)=C(C)C2=O)cc1 (stereo unspecified) | > 1000 |
| CCCCCCCCCCCCCCC1(C)SC(O)=C(C)C1=O (stereo unspecified) | 1000 (≈ 341 µg/mL) |
| CCCCCCCCCCCCCC1(C)SC(O)=C(C)C1=O (stereo unspecified) | 500 (≈ 163 µg/mL) |

The compounds below were run against T7, Mycobacterial beta-ketoacyl-[acyl-carrier-protein] synthase III (Mycobacterium tuberculosis) (UniProt P9WNG3) (assay: Inhibitory activity against FabH from Mycobacterium tuberculosis H37Rv at 100 uM).
T7 sequence (whole entry): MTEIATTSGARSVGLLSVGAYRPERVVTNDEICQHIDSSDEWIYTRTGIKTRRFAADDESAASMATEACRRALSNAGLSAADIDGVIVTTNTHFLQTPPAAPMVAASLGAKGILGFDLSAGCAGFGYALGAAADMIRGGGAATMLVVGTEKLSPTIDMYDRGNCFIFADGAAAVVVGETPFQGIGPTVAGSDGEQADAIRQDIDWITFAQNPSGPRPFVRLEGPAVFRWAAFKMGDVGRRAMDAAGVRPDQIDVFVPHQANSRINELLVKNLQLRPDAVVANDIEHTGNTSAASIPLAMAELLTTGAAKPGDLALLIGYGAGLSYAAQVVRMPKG

| Structure (SMILES) | inhibition |
| --- | --- |
| C=CCC1(C)SC(=O)C(C)=C1O (stereo unspecified) | inactive |
| CC1=C(O)C(C)(C/C=C/c2ccccc2)SC1=O (stereo unspecified) | inactive |
| CC(C)=CCC/C(C)=C/CC1(C)SC(O)=C(C)C1=O (stereo unspecified) | inactive |
| CCCCCCCCCCC1(C)SC(O)=C(C)C1=O (stereo unspecified) | < 30% |

These compounds were tested on Escherichia coli (assay: Inhibitory activity against Escherichia coli ANSI).
Type: functional

| Structure (SMILES) | MIC [µM] |
| --- | --- |
| C=CCC1(C)SC(=O)C(C)=C1O (stereo unspecified) | > 1000 |
| CCCCCCCCCCCCC1(C)SC(O)=C(C)C1=O (stereo unspecified) | 25 (≈ 7.81 µg/mL) |
| CC1=C(O)C(C)(C/C=C/c2ccccc2)SC1=O (stereo unspecified) | > 1000 |
| CC(C)=CCC/C(C)=C/CC1(C)SC(O)=C(C)C1=O (stereo unspecified) | > 1000 |
| CCCCCCCCCCC1(C)SC(O)=C(C)C1=O (stereo unspecified) | 100 (≈ 28.4 µg/mL) |
| CC1=C(O)C(C)(Cc2cccc(C(F)(F)F)c2)SC1=O (stereo unspecified) | > 1000 |
| COc1ccc(CC2(C)SC(O)=C(C)C2=O)cc1 (stereo unspecified) | > 1000 |
| CCCCCCCCCCCCCCC1(C)SC(O)=C(C)C1=O (stereo unspecified) | 200 (≈ 68.1 µg/mL) |
| CCCCCCCCCCCCCC1(C)SC(O)=C(C)C1=O (stereo unspecified) | > 200 |

What follows are compounds tested against T8, 3-oxoacyl-[acyl-carrier-protein] synthase 3 (Escherichia coli, UniProt C3TDZ2) (assay: Inhibitory activity against FabH from Escherichia coli ANSI).
T8 sequence (C3TDZ2 whole entry): T5 sequence (whole entry)

| Structure (SMILES) | IC50 [µM] |
| --- | --- |
| CCCCCCCCCCCCC1(C)SC(O)=C(C)C1=O (stereo unspecified) | 100 |
| CC(C)=CCC/C(C)=C/CC1(C)SC(O)=C(C)C1=O (stereo unspecified) | 100 |
| CCCCCCCCCCC1(C)SC(O)=C(C)C1=O (stereo unspecified) | 100 |
| CC1=C(O)C(C)(Cc2cccc(C(F)(F)F)c2)SC1=O (stereo unspecified) | > 1000 |
| COc1ccc(CC2(C)SC(O)=C(C)C2=O)cc1 (stereo unspecified) | > 1000 |
| CCCCCCCCCCCCCCC1(C)SC(O)=C(C)C1=O (stereo unspecified) | 100 |
| CCCCCCCCCCCCCC1(C)SC(O)=C(C)C1=O (stereo unspecified) | 100 |

The compounds below were run against wild-type apo-KasA (Mycobacterium tuberculosis, UniProt P9WQD9) (assay: Inhibitory activity against KasA from Mycobacterium tuberculosis H37Rv).

| Structure (SMILES) | IC50 [µM] |
| --- | --- |
| CC1=C(O)C(C)(Cc2cccc(C(F)(F)F)c2)SC1=O (stereo unspecified) | > 1000 |
| COc1ccc(CC2(C)SC(O)=C(C)C2=O)cc1 (stereo unspecified) | > 1000 |

What follows are compounds tested against T9, Mycobacterial beta-ketoacyl-[acyl-carrier-protein] synthase III (Mycobacterium tuberculosis, UniProt P9WNG3) (assay: Inhibitory activity against FabH from Mycobacterium tuberculosis H37Rv).
T9 sequence (P9WNG3 whole entry): T7 sequence (whole entry)

| Structure (SMILES) | IC50 [µM] |
| --- | --- |
| CCCCCCCCCCCCC1(C)SC(O)=C(C)C1=O (stereo unspecified) | 50 |
| CCCCCCCCCCC1(C)SC(O)=C(C)C1=O (stereo unspecified) | > 100 |
| CC1=C(O)C(C)(Cc2cccc(C(F)(F)F)c2)SC1=O (stereo unspecified) | > 1000 |
| COc1ccc(CC2(C)SC(O)=C(C)C2=O)cc1 (stereo unspecified) | > 1000 |
| CCCCCCCCCCCCCCC1(C)SC(O)=C(C)C1=O (stereo unspecified) | 80 |
| CCCCCCCCCCCCCC1(C)SC(O)=C(C)C1=O (stereo unspecified) | 80 |
